Like-named read-outs stand apart in the source and are kept apart here.
Columns and labels:
H460 cells [1] = experiment: Alamar Blue antiproliferation assay, H460 cell line; format: cell-based, human
Experimental: (§1) To determine the effect of the compounds of the present invention on cell proliferation, the antiproliferative activity of these compounds was tested in a multi-well Alamar Blue based assay (at 2 h and 3 days). Cell growth in the presence and absence of the test compound as tabulated in Table 1 was compared, as measured by a fluorescence plate reader at excitation 550 nm and emission 590 nm (see Biosource International Inc., Tech Application Notes, Use of Alamar Blue in the measurement of Cell Viability and Toxicity, Determining IC50). H460 cells (ATCC HTB-177 ([…]), 4,000 cells/well/200 μl) and LNCap cells (ATCC CRL-1740, 6,000 cells/well/200 μl) were seeded in a 96 well plate in RPMI medium (Invitrogen Corporation, Carlsbad, Calif.). After 24 hours, these plates were divided into 3 groups—Control group, 2 h treatment group and 3 day treatment group.
(§2) In the 2 h treatment group, after 2 h the cells were rinsed to remove the test compound and incubated for 3 days, followed by staining with AlamarBlue. The cells in the 3-day treatment group were incubated for 3 days, followed by staining with AlamarBlue. In the Control group, AlamarBlue was added to the plate at (i) day 0 and (ii) day 3 and measured to establish the control reading. In all the groups, the capacity of the cells to proliferate was measured 6 hours after addition of AlamarBlue by a fluorescence plate reader at excitation 550 nm and emission 590 nm.

[2] = Metabolic stability in mouse liver microsomes; format: in vitro ADME; settings: 5 μM, 1 mg/mL protein, NADPH, 37° C.
Experimental: An in vitro assessment of metabolic stability of compounds was performed using commercially available mouse liver microsomes (MLM) containing cytochrome P450 enzymes (Cedra Corp, Austin, Tex.). A solutions (5 μM) of a compound and microsomes (1 mg/mL protein) was prepared. P450 enzymatic reactions were initiated by adding an NADPH solution. Enzymatic reactions were carried out in a thermostated shaking water bath kept at 37° C. Fifty μl of the reaction mixture was withdrawn immediately and 30 minutes after the addition of the NADPH solution and the proteins were precipitated with acetonitrile. The clear supernatant was analyzed by reversed phase LC-MS/MS (Applied Biosystems API-3000 with Hypersil-BDS C18 column and gradient elution), with internal standard area ratio quantification for the amount the compound remaining as shown in table 4.

MES-SA = experiment: Alamar Blue antiproliferation assay, MES-SA; format: cell-based; settings: 3 Day
MES-SA/DX5 = experiment: Alamar Blue antiproliferation assay, MES-SA/DX5; format: cell-based; settings: MES-SA/DX5, 3 Day
HT29 = experiment: Alamar Blue antiproliferation assay, HT29; format: cell-based; settings: HT29, 3 Day
T47D = experiment: Alamar Blue antiproliferation assay, T47D; format: cell-based; settings: 3 Day
cancer cell = experiment: Cancer cell antiproliferation assay (cell line not stated); format: cell-based; settings: summary statement; read-out: GI50 or IC50 in a cancer cell antiproliferation assay
Experimental: In one aspect, the present invention provides a compound of formula (I-VII) having a GI50, GI90, IC50, or IC50 of about 0.001 to about 1000 nM, about 0.01 to about 100 nm, about 0.1 to about 50 nM, and about 1 to about 10 nM in a cancer cell antiproliferation assay. In one embodiment, the present invention provides a compound of formula (I) having a GI50 or IC50 of about 0.01 to about 100 nm, about 0.1 to about 50 nm, and about 1 to about 10 nm in a cancer cell antiproliferation assay. In various embodiments, said antiproliferation assays employ cancer cell including but not limited to gastric, colon, breast, and non-small cell lung cancer. In various embodiments, the […] cancer cell used is MESSA or doxorubicin resistant MESSA/DX5 cell; the colon cancer cell is HT29 cell; the breast cancer cell is T47D cell; and the non-small cell lung cancer cell is H460 cell.
as §1, §2

[3] = patients, reported in literature; cited from earlier work
Plasma stability = format: in vitro ADME; settings: mouse plasma, 5 μM, 37° C.
Experimental: For an assessment of plasma stability of compounds, commercially available mouse plasma (Bioreclamation, Hicksville, N.Y.) was added to a DMSO solution of a compound, to a concentration of 5 μM. The reaction mixture (50 μl) was withdrawn immediately and after 30 minutes at 37° C., proteins were precipitated with acetonitrile. The clear supernatant was analyzed by reversed phase LC-MS/MS and the amount the compound remaining quantified as shown in table 4.

H460 xenograft = H460 xenograft mouse model; format: in vivo; settings: day 21; taxol alone 10 mg/kg daily; treatment began at 150 mm^3 tumor volume
Experimental: Female CB17/SCID mice (purchased from Taconic, Oxnard, Calif.), 7-8 weeks of age, were allowed to acclimatize for at least three days, and handled under pathogen-free conditions. Human non-small cell lung cancer cell line […] was obtained from the American Type Culture Collection. The cell lines were cultured in RPMI 1640 media supplemented with 10% fetal bovine serum. Cells were maintained in a 37° C. incubator with 5% CO2. The H460 cells were harvested from culture and inoculated at 1×10^6 cells/animal in the […] subcutaneous space. […] Taxol was administered approximately 2-3 hours before that of compound 30.
The body weight of each mouse was recorded twice per week (FIG. 1). […] One animal in the treatment group was found dead on day 18, and two were found dead on day 22 in the combination group.
FIG. 2 graphically illustrates the mean tumor volume for each treatment group. Growth of each xenograft was monitored by externally measuring tumors in two dimensions using a digital caliper twice per week. Tumor volume (V) was determined by the following equation: V=(L×W^2)/2, where L is the length and W is the width of a xenograft. Tumor volumes were measured twice weekly. On day 11, the Treated/Control (T/C) ratio was 65% and 52% in the treatment and combination groups, respectively. At the final measurement (day 22), the T/C ratio for the treatment and combination groups respectively were 43% and 19%.

H460 cells [4] = experiment: Cell cycle analysis; format: cell-based, human; settings: 24 h
Experimental: H460 cells (2×10^5 cells/ml/well) were seeded in a 24 well plate. The culture media were removed after 24 h, the cells were trypsinized and centrifuged. […] The cells were centrifuged and the supernatant was discarded. The cell cycle staining reagent (Guava Technologies, Hayward, Calif., USA, 200 μl) was added to each well. The cells were shielded from light and incubated at room temperature for 30 min.

tubulin = experiment: Tubulin polymerization inhibition (cell free tubulin fluorescence); format: biochemical; settings: compared to untreated tubulin, read-out: IC50 (μM), concentration that reduced tubulin fluorescence by 50%
Experimental: A sample of cell free tubulin polymerizes and the sample's fluorescence emission increases. Inhibition of tubulin polymerization by a tubulin binding compounds of the present invention was measured by the dose dependence of cell free tubulin fluorescence.

[5] = Homo sapiens, NCI-H460, 2 h treatment, then 3 days incubation, read-out: GI50 (nM) 2 Hour
[6] = Homo sapiens, NCI-H460, 72 h, 3 day treatment, read-out: GI50 (nM) 3 Days

Compound | GI50 (H460 cells [1]; [5]) [nM] | GI50 (H460 cells [1]; [6]) [nM] | Metabolic stability (MLM, % remaining at 30 min) [2] [%] | GI50 (MES-SA; Homo sapiens, 72 h) [nM] | GI50 (MES-SA/DX5; Homo sapiens, 72 h) [nM] | GI50 (HT29; Homo sapiens, HT-29, 72 h) [nM] | GI50 (T47D; Homo sapiens, 72 h) [nM] | IC50 (cancer cell) [nM] | further results
COc1cc(C(=O)c2n[nH]c3c(C#N)c(OC)ccc23)cc(OC)c1OC [Compound 58] | > 10000 | 15.8 | 28 ± 6 | – | – | – | – | – | –
COc1cc(C(=O)c2n[nH]c3c(/C=C/CO)c(OC)ccc23)cc(OC)c1OC [Compound 54] | 501 | 2 | – | 3.2 | 6.3 | 5 | 20 | 1 to 50 | –
COc1ccc(/C=C\c2cc(OC)c(OC)c(OC)c2)cc1OP(=O)(O)O [Combretastatin A-4 phosphate] | – | – | – | – | – | – | – | – | maximum tolerated daily dose [3]: 60-68 mg/m^2
COc1cc(C(=O)c2n[nH]c3c(C#Cc4ccccn4)c(OC)ccc23)cc(OC)c1OC [Compound 68] | – | – | 17 ± 4 | – | – | – | – | – | GI50 (H460 cells [1]; 3 day treatment, read-out: GI50 (nM) 3 Days): 1.4 nM; GI50 (MES-SA): 1.6 nM; GI50 (MES-SA/DX5): 1.9 nM; GI50 (HT29): 1.6 nM; GI50 (T47D): 1.6 nM
COc1cc(C(=O)c2n[nH]c3c(C#CCOC(=O)OCc4ccc([N+](=O)[O-])o4)c(OC)ccc23)cc(OC)c1OC [Compound 57] | 100 | 10 | 21 ± 4 | – | – | – | – | – | –
COc1cc(C(=O)c2n[nH]c3c(C(N)=O)c(OC)ccc23)cc(OC)c1OC [Compound 60] | > 1000 | 25.1 | 94 ± 4 | – | – | – | – | – | –
C#Cc1c(OC)ccc2c(C(=O)c3cc(OC)c(OC)c(OC)c3)n[nH]c12 [Compound 72] | – | 1.3 | 40 ± 9 | 1.9 | 3.9 | 1.6 | 6.3 | 1 to 50 | Plasma stability (% remaining at 30 min) (Plasma stability): 105%
CC(=O)O[C@H]1C(=O)[C@@]2(C)[C@H]([C@H](OC(=O)c3ccccc3)[C@]3(O)C[C@H](OC(=O)[C@H](O)[C@@H](NC(=O)c4ccccc4)c4ccccc4)C(C)=C1C3(C)C)[C@]1(OC(C)=O)CO[C@@H]1C[C@@H]2O [taxol, paclitaxel, reference compound] | – | – | – | – | – | – | – | – | TIC, tumor volume (H460 xenograft): 56%
COc1cc(C(=O)c2n[nH]c3c(CCCO)c(OC)ccc23)cc(OC)c1OC [Compound 55] | > 10000 | 7.9 | – | 12 | 15.8 | 10 | 25 | 1 to 50 | –
COc1ccc2c(C(=O)c3cc(OC)c(OC)c(OC)c3)nn(C(=O)Cc3ccc(OCc4ccccc4)cc3)c2c1 [Compound 34] | > 10000 | 126 | – | – | – | – | – | – | –
COc1cc(C(=O)c2n[nH]c3c(C#CC(=O)O)c(OC)ccc23)cc(OC)c1OC [Compound 37] | 501 | 3.2 | – | 3.2 | 3.5 | 5 | – | 1 to 50 | –
COc1cc(C(=O)c2n[nH]c3c(C#CC(C)O)c(OC)ccc23)cc(OC)c1OC (stereo not shown) [Compound 66] | – | 10 | 88 ± 11 | 15.8 | 10 | 12.6 | 6.3 | 1 to 50 | –
COc1cc(C(=O)c2n[nH]c3c(Br)c(OC)ccc23)cc(OC)c1OC [Compound 39] | – | 15.8 | – | 2.5 | 10 | 12.6 | 200 | 1 to 50 | % G2/M (H460 cells [4]; H460, 0.4 nM): 28%; % Go/G1 (H460 cells [4]; H460, 0.4 nM): 50%; % S (H460 cells [4]; H460, 0.4 nM): 15%; % G2/M (H460 cells [4]; H460, 1.2 nM): 31%; % Go/G1 (H460 cells [4]; H460, 1.2 nM): 47%; % S (H460 cells [4]; H460, 1.2 nM): 14%; % G2/M (H460 cells [4]; H460, 3.7 nM): 32%; % Go/G1 (H460 cells [4]; H460, 3.7 nM): 45%; % S (H460 cells [4]; H460, 3.7 nM): 12%; % G2/M (H460 cells [4]; H460, 11.1 nM): 29%; % Go/G1 (H460 cells [4]; H460, 11.1 nM): 47%; % S (H460 cells [4]; H460, 11.1 nM): 14%; % G2/M (H460 cells [4]; H460, 33.3 nM): 60%; % Go/G1 (H460 cells [4]; H460, 33.3 nM): 18%; % S (H460 cells [4]; H460, 33.3 nM): 13%; IC50 (tubulin): 7.9 µM

Reference: patent US20090042820A1, “Tubulin Binding Anti Cancer Agents And Prodrugs Thereof” (Threshold Pharmaceuticals, Inc., priority 2004, published 2009)
